We go through 16 compounds from US10508120B2, “TYK2 inhibitors and uses thereof” (Nimbus Lakshmi, Inc., priority 2017, dated 2019).

In one experiment the target is Tyk2 kinase domain (DH1) (Homo sapiens (Human), UniProt P29597). Description: Tyk2 Radioactive Kinase Assay. The class given is biochemical. The settings on record: for inhibition at 10 µM: read-out: Tyk2 JH1% Inhibition @ 10 μM. The method, boiled down:
(§1)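 Single-point screen: 10 μM test compound, radioactive kinase read-out, percent inhibition reported for each kinase domain.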

For experiment [1], the target named is human TYK2 (JH2domain-pseudokinase) (Homo sapiens (Human), UniProt P29597). Nature of the experiment: TYK2 JH2 Domain Binding Assay (KINOMEscan). A digest of the protocol:
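Competition binding of a DNA-tagged fusion of human TYK2 JH2 pseudokinase (G556–D888) with NFkB DNA-binding domain, from HEK293 extracts (<0.1 nM final), against immobilised ligand beads; 1 h shaking at room temperature, 0.9% DMSO. Bound kinase quantified by qPCR.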

Another experiment concerns the target JAK2 kinase domain (JH1) (Homo sapiens (Human), UniProt O60674). Nature of the experiment: JAK2 Radioactive Kinase Assay. The format is biochemical. Particulars: for inhibition at 10 µM: read-out: JAK2 JH1% Inhibition @ 10 μM. A digest of the protocol:
as §1

Like-named read-outs stand apart in the source and are kept apart here. Some results are limits rather than exact numbers.

human TYK2 (JH2domain-pseudokinase), sequence (P29597 556-888): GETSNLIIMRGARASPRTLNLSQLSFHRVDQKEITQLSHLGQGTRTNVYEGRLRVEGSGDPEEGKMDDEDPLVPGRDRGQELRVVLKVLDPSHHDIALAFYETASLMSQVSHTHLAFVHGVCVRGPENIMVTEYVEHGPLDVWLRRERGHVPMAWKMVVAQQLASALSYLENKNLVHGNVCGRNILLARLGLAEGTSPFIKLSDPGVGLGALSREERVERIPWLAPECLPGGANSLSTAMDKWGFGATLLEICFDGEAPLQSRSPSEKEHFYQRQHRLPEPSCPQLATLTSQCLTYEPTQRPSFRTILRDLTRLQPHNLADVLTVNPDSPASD
Tyk2 kinase domain (DH1), sequence (P29597 897-1176): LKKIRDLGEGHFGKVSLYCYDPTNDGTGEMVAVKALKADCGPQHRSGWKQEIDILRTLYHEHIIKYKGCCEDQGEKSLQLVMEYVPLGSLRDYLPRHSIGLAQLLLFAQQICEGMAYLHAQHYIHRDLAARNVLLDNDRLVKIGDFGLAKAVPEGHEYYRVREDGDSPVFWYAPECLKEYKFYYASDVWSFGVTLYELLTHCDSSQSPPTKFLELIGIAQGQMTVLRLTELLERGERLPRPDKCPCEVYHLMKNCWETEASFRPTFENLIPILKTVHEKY
JAK2 kinase domain (JH1), sequence (O60674 849-1124): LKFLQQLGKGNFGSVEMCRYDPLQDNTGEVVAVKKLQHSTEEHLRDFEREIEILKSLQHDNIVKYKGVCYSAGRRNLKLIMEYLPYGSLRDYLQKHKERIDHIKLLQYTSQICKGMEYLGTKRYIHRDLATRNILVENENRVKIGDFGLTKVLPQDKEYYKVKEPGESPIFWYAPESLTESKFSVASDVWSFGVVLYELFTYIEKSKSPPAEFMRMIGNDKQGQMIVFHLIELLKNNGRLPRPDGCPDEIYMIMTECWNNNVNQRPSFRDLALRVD

Regarding `CNc1cc(Nc2cccc(C3CCCCO3)n2)nc2c(C(=O)NC3CC3)cnn12` (stereo in doubt) [I-464, (S)—N-cyclopropyl-7-(methylamino)-5-((6-(tetrahydro-2H-pyran-2-yl)pyridin-2-yl)amino) pyrazolo[1,5-a]pyrimidine-3-carboxamide], the inhibition (as a rule, the change of the read-out against control, counted positive when it falls) at 10 µM on Tyk2 kinase domain (DH1) (compound at 10 μM, ATP 10 μM) is below 50%; at JAK2 kinase domain (JH1) (compound at 10 μM, ATP 10 μM) it was below 50%. Moreover, the Kd (usually the constant that tells how readily two partners part at equilibrium) in experiment [1] fell in the range of 0.2 to 1 nM.
Turning to `NC(=O)c1cnn2c(N)cc(Nc3cccnc3OC(F)(F)F)nc12` [I-102, 7-amino-5-((2-(trifluoromethoxy)pyridin-3-yl)amino)pyrazolo[1,5-a]-pyrimidine-3-carboxamide], the inhibition at 10 µM at Tyk2 kinase domain (DH1) (compound at 10 μM, ATP 10 μM) is 70 to 90%; on JAK2 kinase domain (JH1) (compound at 10 μM, ATP 10 μM), above 90%. Moreover, the dissociation constant (Kd) in experiment [1] was 0.2 to 1 nM.
Consider `CNc1cc(Nc2cccn([C@@H]3CCC[C@@H](OC)C3)c2=O)nc2c(C(=O)N[C@@H]3C[C@@H]3F)cnn12` [I-1043], for which the inhibition at 10 µM at Tyk2 kinase domain (DH1) (10 μM compound, 10 μM ATP) is below 50%; on JAK2 kinase domain (JH1) (10 μM compound, 10 μM ATP) it was below 50%. Also, the dissociation constant (Kd) in experiment [1] lay in the range of 0.2 to 1 nM.
For `CNc1cc(Nc2cccn(C3CCN(CCF)CC3)c2=O)nc2c(C(=O)N[C@@H]3CC[C@@H]3O)cnn12` [I-897], the inhibition at 10 µM at Tyk2 kinase domain (DH1) (10 μM compound, 10 μM ATP) was below 50%; at JAK2 kinase domain (JH1) (10 μM compound, 10 μM ATP) it was below 50%. Also, the Kd in experiment [1] was 0.2 to 1 nM.
On to `CNc1cc(-c2nn(CCN3CCCCC3)c3ncccc23)nc2c(C(=O)NC3CC3)cnn12` [I-457], for which the inhibition at 10 µM on Tyk2 kinase domain (DH1) (compound at 10 μM, ATP 10 μM) is below 50%; on JAK2 kinase domain (JH1) (compound at 10 μM, ATP 10 μM), below 50%. Besides, the dissociation constant Kd in experiment [1] fell in the range of 1 to 10 nM.
In the case of `CNc1cc(Nc2cccn(-c3ccc(N4CCOCC4)cc3)c2=O)nc2c(C(N)=O)cnn12` [I-10], the inhibition at 10 µM at Tyk2 kinase domain (DH1) (compound at 10 μM, ATP 10 μM) is below 50%; at JAK2 kinase domain (JH1) (compound at 10 μM, ATP 10 μM), below 50%. The Kd in experiment [1] is below 0.2 nM.
As to `CNc1cc(Nc2cccn(-c3ccccc3F)c2=O)nc2c(C(=O)NC[C@@H](C)CO)cnn12` [I-1076], the inhibition at 10 µM on Tyk2 kinase domain (DH1) (10 μM compound, 10 μM ATP) was below 50%; on JAK2 kinase domain (JH1) (10 μM compound, 10 μM ATP), below 50%. In experiment [1], the Kd is below 0.2 nM.
As for `CNc1cc(Nc2cccn(C3CCCCC3)c2=O)nc2c(C(=O)N[C@H]3CC[C@H]3O)cnn12` [I-1001], the “Tyk2 JH1% Inhibition @ 10 μM” value on Tyk2 kinase domain (DH1) (10 μM compound, 10 μM ATP) is listed as “A (percent inhibition at 10 μM lower than 50)”. The compound further displayed a dissociation constant (Kd) in experiment [1] of 1 to 10 nM. For the same compound, at JAK2 kinase domain (JH1) (10 μM compound, 10 μM ATP), the “JAK2 JH1% Inhibition @ 10 μM” value was “A (percent inhibition at 10 μM lower than 50)”.
Take `CNc1cc(Nc2cccn([C@H]3CC[C@](C)(OC)CC3)c2=O)nc2c(C(=O)NC3CC3)cnn12` [I-361]: the inhibition at 10 µM was below 50% on Tyk2 kinase domain (DH1) (compound at 10 μM, ATP 10 μM) and below 50% on JAK2 kinase domain (JH1) (compound at 10 μM, ATP 10 μM). The dissociation constant (Kd) in experiment [1] was below 0.2 nM.
For `CNc1cc(Nc2cccc([C@H]3CCCOC3)n2)nc2c(C(=O)N[C@H]3CC[C@@H]3O)cnn12` [I-602], the inhibition at 10 µM is below 50% at Tyk2 kinase domain (DH1) (compound at 10 μM, ATP 10 μM) and below 50% on JAK2 kinase domain (JH1) (compound at 10 μM, ATP 10 μM). In experiment [1], this compound displayed a Kd below 0.2 nM.
Take `CNc1cc(Nc2cccn(-c3ccccn3)c2=O)nc2c(C(=O)NCC(C)CO)cnn12` (stereo not drawn) [I-682]: the inhibition at 10 µM is below 50% at Tyk2 kinase domain (DH1) (compound at 10 μM, ATP 10 μM) and below 50% at JAK2 kinase domain (JH1) (compound at 10 μM, ATP 10 μM). Moreover, the Kd in experiment [1] is 0.2 to 1 nM.
Take `CNc1cc(Nc2cccn([C@H]3CCN(CCF)C3)c2=O)nc2c(C(=O)NC3CC3)cnn12` [I-932]: the inhibition at 10 µM was below 50% on Tyk2 kinase domain (DH1) (10 μM compound, 10 μM ATP) and below 50% on JAK2 kinase domain (JH1) (10 μM compound, 10 μM ATP). In experiment [1], this compound had a Kd of 0.2 to 1 nM.
`CNc1cc(Nc2cccn([C@H]3CCC[C@@H](OC)C3)c2=O)nc2c(C(=O)NCC(C)(C)CO)cnn12` [I-950]: the inhibition at 10 µM on Tyk2 kinase domain (DH1) (10 μM compound, 10 μM ATP) was below 50%; at JAK2 kinase domain (JH1) (10 μM compound, 10 μM ATP) it was below 50%. In addition, in experiment [1], the Kd was 0.2 to 1 nM.
For the compound `CNc1cc(Nc2cccn(-c3ncc(C)s3)c2=O)nc2c(C(=O)N[C@H]3CC[C@H]3O)cnn12` [I-1072], the inhibition at 10 µM on Tyk2 kinase domain (DH1) (10 μM compound, 10 μM ATP) was below 50%; at JAK2 kinase domain (JH1) (10 μM compound, 10 μM ATP) it was below 50%. In addition, the Kd in experiment [1] was below 0.2 nM.
`CNc1cc(-c2cn(C3CCOCC3)c3ncccc23)nc2c(C(=O)N[C@H]3CC[C@H]3O)cnn12` [I-1113]: the inhibition at 10 µM on Tyk2 kinase domain (DH1) (10 μM compound, 10 μM ATP) is below 50%; at JAK2 kinase domain (JH1) (10 μM compound, 10 μM ATP), below 50%. Moreover, the Kd in experiment [1] is below 0.2 nM.
For the compound `CNc1cc(Nc2cccn(-c3ccc(F)cn3)c2=O)nc2c(C(N)=O)cnn12` [I-48], the inhibition at 10 µM is below 50% on Tyk2 kinase domain (DH1) (compound at 10 μM, ATP 10 μM) and below 50% on JAK2 kinase domain (JH1) (compound at 10 μM, ATP 10 μM). The same compound yielded a dissociation constant (Kd) in experiment [1] of 0.2 to 1 nM.
